Assay results from patent US11179348B2, “Combination comprising pterostilbene for the treatment of cancer” (FUNDACIÓN UNIVERSIDAD CATÓLICA DE VALENCIA SAN VICENTE …, priority 2015, dated 2021).
Marks after values point to notes of the source that are not given here.

Assay: Hematology, clinical chemistry and urinary balance in tumor-bearing mice treated with Pter
Assay type: in vivo
Details: Pter 30 mg/kg i.v.

COc1cc(/C=C/c2ccc(O)cc2)cc(OC)c1 [Pter, trans-3,5-dimethoxy-4′-hydroxystilbene]
Potassium (A2058-bearing mice, day 35): 7.7 ± 1.6 mEq/L
Sodium (A2058-bearing mice, day 35): 152 ± 20 mEq/L
Total bilirubin (A2058-bearing mice, day 35): 0.5 ± 0.1 mg/dL
Total protein (A2058-bearing mice, day 35): 3.9 ± 0.5 g/dL
Urea (A2058-bearing mice, day 35): 50.4 ± 3.1 mg/dL
Uric acid (A2058-bearing mice, day 35): 1.8 ± 0.4 mg/dL
Urinary balance: Bilirubin (A2058-bearing mice, day 35): Negative
Urinary balance: Erythrocytes (A2058-bearing mice, day 35): Negative
Urinary balance: GFR (A2058-bearing mice, day 35): 167 ± 30 µL/min
Urinary balance: Glucose (A2058-bearing mice, day 35): Normal
Urinary balance: Ketones (A2058-bearing mice, day 35): Negative
Urinary balance: Leukocytes (A2058-bearing mice, day 35): Negative
Urinary balance: Nitrite (A2058-bearing mice, day 35): Negative
Urinary balance: Protein (A2058-bearing mice, day 35): 0.2 g/L
Urinary balance: Urobilinogen (A2058-bearing mice, day 35): Normal
Urinary balance: pH (A2058-bearing mice, day 35): 7.7 ± 0.5
% CD3 (AsPC-1-bearing mice, day 28): 0.9 ± 0.3%
Alanine aminotransferase (AsPC-1-bearing mice, day 28): 13.2 ± 3.5 IU/L
Albumin (AsPC-1-bearing mice, day 28): 3.0 ± 0.6 g/dL
Alkaline phosphatase (AsPC-1-bearing mice, day 28): 147 ± 18 IU/L
Aspartate aminotransferase (AsPC-1-bearing mice, day 28): 166 ± 27 IU/L
B cells (AsPC-1-bearing mice, day 28): 71.4 ± 11.4
Basophils (AsPC-1-bearing mice, day 28): 0.0 ± 0.0 10^3/μL
CD4 (AsPC-1-bearing mice, day 28): 0.8 ± 0.1
CD8 (AsPC-1-bearing mice, day 28): 0.2 ± 0.1
Chloride (AsPC-1-bearing mice, day 28): 106 ± 9 mEq/L
Creatinine (AsPC-1-bearing mice, day 28): 0.5 ± 0.1 mg/dL
Direct bilirubin (AsPC-1-bearing mice, day 28): 0.1 ± 0.03 mg/dL
Eosinophils (AsPC-1-bearing mice, day 28): 0.04 ± 0.02 10^3/μL
Erythrocytes (AsPC-1-bearing mice, day 28): 6.2 ± 0.1^† 10^6/μL
GGT (AsPC-1-bearing mice, day 28): 2.3 ± 0.4 IU/L
Glucose (AsPC-1-bearing mice, day 28): 136 ± 20 mg/dL
Hematocrit (AsPC-1-bearing mice, day 28): 30.1 ± 1.5 %
Hemoglobin (AsPC-1-bearing mice, day 28): 12.0 ± 0.3 g/dL
Isolated CD2^+ lymphocytes: Cell volume (AsPC-1-bearing mice, day 28): 177 ± 14 μm^3
Isolated CD2^+ lymphocytes: GSH (AsPC-1-bearing mice, day 28): 4.2 ± 0.6 nmol/10^6 cells
Isolated CD2^+ lymphocytes: Glucose utilization (AsPC-1-bearing mice, day 28): 1.23 ± 0.15 µmol/g/min
Isolated CD2^+ lymphocytes: Glutamine utilization (AsPC-1-bearing mice, day 28): 3.40 ± 0.12 µmol/g/min
Isolated hepatocytes: Cell volume (AsPC-1-bearing mice, day 28): 3.0 ± 0.3 μL/mg dry wt.
Isolated hepatocytes: GSH (AsPC-1-bearing mice, day 28): 4420 ± 444 nmol/g of cells
Isolated hepatocytes: Glucose utilization (AsPC-1-bearing mice, day 28): 1.50 ± 0.13 µmol/g/min
Lactate dehydrogenase (AsPC-1-bearing mice, day 28): 288 ± 30 IU/L
Leukocytes (AsPC-1-bearing mice, day 28): 1.9 ± 0.3* 10^3/μL
Lymphocytes (AsPC-1-bearing mice, day 28): 1.1 ± 0.2 10^3/μL
Monocytes (AsPC-1-bearing mice, day 28): 0.05 ± 0.02 10^3/μL
NK (AsPC-1-bearing mice, day 28): 2.7 ± 1.1
Neutrophils (AsPC-1-bearing mice, day 28): 0.6 ± 0.2^† 10^3/μL
Plasma osmolality (AsPC-1-bearing mice, day 28): 278 ± 16 mOsm/kg
Platelets (AsPC-1-bearing mice, day 28): 312 ± 55^† 10^3/μL
Potassium (AsPC-1-bearing mice, day 28): 8.9 ± 1.7 mEq/L
Sodium (AsPC-1-bearing mice, day 28): 149 ± 14 mEq/L
Total bilirubin (AsPC-1-bearing mice, day 28): 0.5 ± 0.1 mg/dL
Total protein (AsPC-1-bearing mice, day 28): 3.5 ± 0.5 g/dL
Urea (AsPC-1-bearing mice, day 28): 52.4 ± 5.7 mg/dL
Uric acid (AsPC-1-bearing mice, day 28): 1.6 ± 0.3 mg/dL
Urinary balance: Bilirubin (AsPC-1-bearing mice, day 28): Negative
Urinary balance: Erythrocytes (AsPC-1-bearing mice, day 28): Negative
Urinary balance: GFR (AsPC-1-bearing mice, day 28): 186 ± 17 µL/min
Urinary balance: Glucose (AsPC-1-bearing mice, day 28): Normal
Urinary balance: Ketones (AsPC-1-bearing mice, day 28): Negative
Urinary balance: Leukocytes (AsPC-1-bearing mice, day 28): Negative
Urinary balance: Nitrite (AsPC-1-bearing mice, day 28): Negative
Urinary balance: Protein (AsPC-1-bearing mice, day 28): 0.3 g/L
Urinary balance: Urobilinogen (AsPC-1-bearing mice, day 28): Normal
Urinary balance: pH (AsPC-1-bearing mice, day 28): 7.7 ± 0.4
